Laboratory results reported in ChEMBL document CHEMBL3526147, “Tissue distribution and characterization of drug-related material in rats and dogs after repeated oral administration of casopitant” (Drug Metab Dispos, 2011).

Legend:
Set-up in all cases: dosed compound name [14C]Casopitant, route oral
Conditions in all cases: in vivo
Plasma [1] = assay: Drug level in beagle dog plasma assessed as free base level at 40 mg/kg/day, po administered as repeat dose measured after 2 hrs on day 14; assay type: ADME, organism-based, Canis lupus familiaris
Lung [2] = assay: Drug level in Sprague-Dawley rat lung assessed as free base level at 60 mg/kg/day, po administered as repeat dose measured after 24 hrs on day 40; assay type: ADME, organism-based
Blood [3] = assay: Drug level in Sprague-Dawley rat blood assessed as free base level at 60 mg/kg/day, po administered as repeat dose measured after 24 hrs on day 27; assay type: ADME, organism-based
[4] = Drug level in beagle dog lung assessed as free base level at 40 mg/kg/day, po administered as repeat dose measured after 24 hrs on day 34; assay type: ADME, organism-based, Canis lupus familiaris
[5] = Drug level in beagle dog blood assessed as free base level at 40 mg/kg/day, po administered as single dose measured after 24 hrs on day 1; assay type: ADME, organism-based, Canis lupus familiaris
[6] = Drug level in beagle dog blood assessed as free base level at 40 mg/kg/day, po administered as repeat dose measured after 2 hrs on day 14; assay type: ADME, organism-based, Canis lupus familiaris
[7] = Drug level in Sprague-Dawley rat myocardium assessed as free base level at 60 mg/kg/day, po administered as single dose measured after 24 hrs on day 1; assay type: ADME, organism-based
[8] = Drug level in beagle dog lung assessed as free base level at 40 mg/kg/day, po administered as repeat dose measured after 24 hrs on day 14; assay type: ADME, organism-based, Canis lupus familiaris
Blood [9] = assay: Drug level in Sprague-Dawley rat blood assessed as free base level at 60 mg/kg/day, po administered as repeat dose measured after 24 hrs on day 20; assay type: ADME, organism-based
Plasma [10] = assay: Drug level in beagle dog plasma assessed as free base level at 40 mg/kg/day, po administered as repeat dose measured after 24 hrs on day 34; assay type: ADME, organism-based, Canis lupus familiaris
Plasma [11] = assay: Drug level in Sprague-Dawley rat plasma assessed as free base level at 60 mg/kg/day, po administered as single dose measured after 2 hrs on day 20; assay type: ADME, organism-based
Lung [12] = assay: Drug level in Sprague-Dawley rat lung assessed as free base level at 60 mg/kg/day, po administered as repeat dose measured after 24 hrs on day 20; assay type: ADME, organism-based
Plasma [13] = assay: Drug level in Sprague-Dawley rat plasma assessed as free base level at 60 mg/kg/day, po administered as single dose measured after 24 hrs on day 1; assay type: ADME, organism-based
[14] = Drug level in beagle dog kidney assessed as free base level at 40 mg/kg/day, po administered as repeat dose measured after 24 hrs on day 14; assay type: ADME, organism-based, Canis lupus familiaris
Liver [15] = assay: Drug level in Sprague-Dawley rat liver assessed as free base level at 60 mg/kg/day, po administered as repeat dose measured after 24 hrs on day 40; assay type: ADME, organism-based
[16] = Drug level in Sprague-Dawley rat skeletal muscle assessed as free base level at 60 mg/kg/day, po administered as repeat dose measured after 24 hrs on day 20; assay type: ADME, organism-based, Muscle tissue
Liver [17] = assay: Drug level in beagle dog liver assessed as free base level at 40 mg/kg/day, po administered as repeat dose measured after 24 hrs on day 34; assay type: ADME, organism-based, Canis lupus familiaris
Plasma [18] = assay: Drug level in beagle dog plasma assessed as free base level at 40 mg/kg/day, po administered as repeat dose measured after 24 hrs on day 14; assay type: ADME, organism-based, Canis lupus familiaris
[19] = Drug level in beagle dog myocardium assessed as free base level at 40 mg/kg/day, po administered as repeat dose measured after 24 hrs on day 34; assay type: ADME, organism-based, Canis lupus familiaris
Plasma [20] = assay: Drug level in beagle dog plasma assessed as free base level at 40 mg/kg/day, po administered as single dose measured after 24 hrs on day 1; assay type: ADME, organism-based, Canis lupus familiaris
Blood [21] = assay: Drug level in Sprague-Dawley rat blood assessed as free base level at 60 mg/kg/day, po administered as repeat dose measured after 24 hrs on day 40; assay type: ADME, organism-based
[22] = Drug level in Sprague-Dawley rat skeletal muscle assessed as free base level at 60 mg/kg/day, po administered as repeat dose measured after 24 hrs on day 27; assay type: ADME, organism-based, Muscle tissue
[23] = Drug level in beagle dog blood assessed as free base level at 40 mg/kg/day, po administered as repeat dose measured after 24 hrs on day 14; assay type: ADME, organism-based, Canis lupus familiaris
[24] = Drug level in Sprague-Dawley rat skeletal muscle assessed as free base level at 60 mg/kg/day, po administered as repeat dose measured after 24 hrs on day 40; assay type: ADME, organism-based, Muscle tissue
[25] = Drug level in beagle dog myocardium assessed as free base level at 40 mg/kg/day, po administered as repeat dose measured after 24 hrs on day 14; assay type: ADME, organism-based, Canis lupus familiaris
[26] = Drug level in Sprague-Dawley rat myocardium assessed as free base level at 60 mg/kg/day, po administered as repeat dose measured after 24 hrs on day 27; assay type: ADME, organism-based
Kidney [27] = assay: Drug level in Sprague-Dawley rat kidney assessed as free base level at 60 mg/kg/day, po administered as repeat dose measured after 24 hrs on day 20; assay type: ADME, organism-based
[28] = Drug level in beagle dog kidney assessed as free base level at 40 mg/kg/day, po administered as repeat dose measured after 24 hrs on day 34; assay type: ADME, organism-based, Canis lupus familiaris
[29] = Drug level in Sprague-Dawley rat myocardium assessed as free base level at 60 mg/kg/day, po administered as repeat dose measured after 24 hrs on day 20; assay type: ADME, organism-based
Lung [30] = assay: Drug level in Sprague-Dawley rat lung assessed as free base level at 60 mg/kg/day, po administered as single dose measured after 24 hrs on day 1; assay type: ADME, organism-based
[31] = Drug level in beagle dog blood assessed as free base level at 40 mg/kg/day, po administered as repeat dose measured after 24 hrs on day 34; assay type: ADME, organism-based, Canis lupus familiaris
Liver [32] = assay: Drug level in Sprague-Dawley rat liver assessed as free base level at 60 mg/kg/day, po administered as repeat dose measured after 24 hrs on day 20; assay type: ADME, organism-based
[33] = Drug level in beagle dog skeletal muscle assessed as free base level at 40 mg/kg/day, po administered as repeat dose measured after 24 hrs on day 34; assay type: ADME, organism-based, Canis lupus familiaris, Muscle tissue
[34] = Drug level in beagle dog skeletal muscle assessed as free base level at 40 mg/kg/day, po administered as repeat dose measured after 24 hrs on day 14; assay type: ADME, organism-based, Canis lupus familiaris, Muscle tissue
[35] = Drug level in Sprague-Dawley rat myocardium assessed as free base level at 60 mg/kg/day, po administered as repeat dose measured after 24 hrs on day 40; assay type: ADME, organism-based
Liver [36] = assay: Drug level in beagle dog liver assessed as free base level at 40 mg/kg/day, po administered as repeat dose measured after 24 hrs on day 14; assay type: ADME, organism-based, Canis lupus familiaris
Kidney [37] = assay: Drug level in Sprague-Dawley rat kidney assessed as free base level at 60 mg/kg/day, po administered as single dose measured after 24 hrs on day 1; assay type: ADME, organism-based
[38] = Drug level in beagle dog blood assessed as free base level at 40 mg/kg/day, po administered as single dose measured after 2 hrs on day 1; assay type: ADME, organism-based, Canis lupus familiaris
Kidney [39] = assay: Drug level in Sprague-Dawley rat kidney assessed as free base level at 60 mg/kg/day, po administered as repeat dose measured after 24 hrs on day 40; assay type: ADME, organism-based
Plasma [40] = assay: Drug level in Sprague-Dawley rat plasma assessed as free base level at 60 mg/kg/day, po administered as repeat dose measured after 24 hrs on day 40; assay type: ADME, organism-based
Plasma [41] = assay: Drug level in Sprague-Dawley rat plasma assessed as free base level at 60 mg/kg/day, po administered as repeat dose measured after 24 hrs on day 20; assay type: ADME, organism-based
Plasma [42] = assay: Drug level in Sprague-Dawley rat plasma assessed as free base level at 60 mg/kg/day, po administered as single dose measured after 2 hrs on day 1; assay type: ADME, organism-based
Liver [43] = assay: Drug level in Sprague-Dawley rat liver assessed as free base level at 60 mg/kg/day, po administered as repeat dose measured after 24 hrs on day 27; assay type: ADME, organism-based
Liver [44] = assay: Drug level in Sprague-Dawley rat liver assessed as free base level at 60 mg/kg/day, po administered as single dose measured after 24 hrs on day 1; assay type: ADME, organism-based
Lung [45] = assay: Drug level in Sprague-Dawley rat lung assessed as free base level at 60 mg/kg/day, po administered as repeat dose measured after 24 hrs on day 27; assay type: ADME, organism-based
Kidney [46] = assay: Drug level in Sprague-Dawley rat kidney assessed as free base level at 60 mg/kg/day, po administered as repeat dose measured after 24 hrs on day 27; assay type: ADME, organism-based
[47] = Drug level in Sprague-Dawley rat skeletal muscle assessed as free base level at 60 mg/kg/day, po administered as single dose measured after 24 hrs on day 1; assay type: ADME, organism-based, Muscle tissue
Blood [48] = assay: Drug level in Sprague-Dawley rat blood assessed as free base level at 60 mg/kg/day, po administered as single dose measured after 24 hrs on day 1; assay type: ADME, organism-based
Plasma [49] = assay: Drug level in Sprague-Dawley rat plasma assessed as free base level at 60 mg/kg/day, po administered as repeat dose measured after 24 hrs on day 27; assay type: ADME, organism-based
Plasma [50] = assay: Drug level in beagle dog plasma assessed as free base level at 40 mg/kg/day, po administered as single dose measured after 2 hrs on day 1; assay type: ADME, organism-based, Canis lupus familiaris

- Radiolabel recovery (Plasma [1]): 69.5 ugequiv/g
- Radiolabel recovery (Lung [2]): 96.8 ugequiv/g
- Radiolabel recovery (Blood [3]): 7.67 ugequiv/g
- Radiolabel recovery [4]: 345 ugequiv/g
- Radiolabel recovery [5]: 9.4 ugequiv/g
- Radiolabel recovery [6]: 47.4 ugequiv/g
- Radiolabel recovery [7]: 34.6 ugequiv/g
- Radiolabel recovery [8]: 905 ugequiv/g
- Radiolabel recovery (Blood [9]): 14.5 ugequiv/g
- Radiolabel recovery (Plasma [10]): 11.6 ugequiv/g
- Radiolabel recovery (Plasma [11]): 18.5 ugequiv/g
- Radiolabel recovery (Lung [12]): 405 ugequiv/g
- Radiolabel recovery (Plasma [13]): 5.54 ugequiv/g
- Radiolabel recovery [14]: 308 ugequiv/g
- Radiolabel recovery (Liver [15]): 90.4 ugequiv/g
- Radiolabel recovery [16]: 28.1 ugequiv/g
- Radiolabel recovery (Liver [17]): 612 ugequiv/g
- Radiolabel recovery (Plasma [18]): 49.2 ugequiv/g
- Radiolabel recovery [19]: 96.2 ugequiv/g
- Radiolabel recovery (Plasma [20]): 9.68 ugequiv/g
- Radiolabel recovery (Blood [21]): 3.63 ugequiv/g
- Radiolabel recovery [22]: 10.7 ugequiv/g
- Radiolabel recovery [23]: 35.3 ugequiv/g
- Radiolabel recovery [24]: 7.74 ugequiv/g
- Radiolabel recovery [25]: 243 ugequiv/g
- Radiolabel recovery [26]: 32.9 ugequiv/g
- Radiolabel recovery (Kidney [27]): 256 ugequiv/g
- Radiolabel recovery [28]: 102 ugequiv/g
- Radiolabel recovery [29]: 79.6 ugequiv/g
- Radiolabel recovery (Lung [30]): 135 ugequiv/g
- Radiolabel recovery [31]: 9.95 ugequiv/g
- Radiolabel recovery (Liver [32]): 545 ugequiv/g
- Radiolabel recovery [33]: 21.3 ugequiv/g
- Radiolabel recovery [34]: 99.2 ugequiv/g
- Radiolabel recovery [35]: 26.7 ugequiv/g
- Radiolabel recovery (Liver [36]): 1050 ugequiv/g
- Radiolabel recovery (Kidney [37]): 59.1 ugequiv/g
- Radiolabel recovery [38]: 11.3 ugequiv/g
- Radiolabel recovery (Kidney [39]): 39.2 ugequiv/g
- Radiolabel recovery (Plasma [40]): 0.246 ugequiv/g
- Radiolabel recovery (Plasma [41]): 12.4 ugequiv/g
- Radiolabel recovery (Plasma [42]): 6.06 ugequiv/g
- Radiolabel recovery (Liver [43]): 240 ugequiv/g
- Radiolabel recovery (Liver [44]): 121 ugequiv/g
- Radiolabel recovery (Lung [45]): 136 ugequiv/g
- Radiolabel recovery (Kidney [46]): 64.6 ugequiv/g
- Radiolabel recovery [47]: 18.3 ugequiv/g
- Radiolabel recovery (Blood [48]): 5.6 ugequiv/g
- Radiolabel recovery (Plasma [49]): 1.92 ugequiv/g
- Radiolabel recovery (Plasma [50]): 20.8 ugequiv/g
SMILES: CC(=O)N1CCN([C@H]2CCN([14C](=O)N(C)[C@H](C)c3cc(C(F)(F)F)cc(C(F)(F)F)c3)[C@@H](c3ccc(F)cc3C)C2)CC1.CS(=O)(=O)O
